Source: patent publication EP0072532A1, “5(6)-Phenyl-sulfonyloxy-benzimidazole derivatives, process for their production, pharmaceutical compositions containing them and their use against liver disorders” (priority 1981, dated 1983)
Where two headings read alike, the source gives them in different places.

Tests used:
Fasciola hepatica [1] = assay: Chemotherapeutic test against adult liver flukes in artificially infected sheep (egg count reduction / killed flukes), oral application; format: in vivo, Schaf
Excerpt: (§1) Zur Feststellung der Wirkung der erfindungsgemäßen Verbindungen gegen Fasciolide wurden chemotherapeutische Untersuchungen bei ca. 250 g schweren Ratten, bei 2 - 3,5 kg schweren Kaninchen oder an ca. 25 - 30 kg schweren Schaflämmern ausgeführt. Die Versuchstiere wurden mit 15, mit 50 bzw. mit 350 Metazerkarien von Fasciola hepatica artifiziell oral infiziert. Nach Ablauf der Präpatenzperiode (Zeit zwischen Infektion und Geschlechtsreife der Parasiten mit beginnender Ausscheidung von Vermehrungsprodukten) wurde der Parasitenbefall durch Kotuntersuchungen gesichert. Der qualitativ-quantitative Nachweis von Eiern erfolgte nach der Telemann-Anreicherung (Deutsche Medizinische Wochenschrift "34: 1510, 1908).
(§2) Unmittelbar nach der Bestimmung der Eizahl pro Gramm Kot wurde die Behandlung der Versuchstiere (im allgemeinen 3 - 4 Tiere pro Wirkstoff, mindestens aber zwei) vorgenommen. Den Tieren wurde oral eine Suspension von unterschiedlicher Wirkstoffmenge in jeweils festgelegten Volumen (Ratte: 0,5 ml/Tier, Kaninchen: 2 ml/Tier, Schaf: 10 ml/Tier) in einer Tylose-Suspension appliziert. Jeweils am 7., 14. und 28. Tag nach der Behandlung wurde wiederum nach der vorstehend angegebenen Methode die Eizahl pro Gramm Kot ermittelt und die prozentuale Abnahme im Vergleich zum Ausgangswert vor der Behandlung und in Vergleich zu unbehandelten Kontrolltieren errechnet.
(§3) Mit einigen erfindungsgemäßen Verbindungen wurden außerdem beim Fasciola-Befall noch eine zusätzliche Prüftechnik angewandt: Nach Abschluß der Präpatenzperiode wurde bei Fasciola-positiven Schafen ein künstlicher Gallengang geschaffen, der am Ausgang der Gallenblase ein Sieb enthielt, so daß die nach der Behandlung abgetöteten Leberegel in der Gallenblase aufgefangen werden konnten. Vier bis sieben Tage nach der Behandlung wurden die so operierten und dann behandelten Schafe getötet, die abgetöteten Leberegel in der Gallenblase so wie noch eventuell in der Leber vorhandene Leberegel gezählt und von der gesamten Wurmbürde der Prozentsatz der abgetöteten Parasiten berechnet. Bei ausgewählten Substanzen wurden über die Kotuntersuchung hinaus auch die behandelten Tiere seziert und die Leber auf eine eventuelle Rest-Wurmbürde von Fasciola hepatica untersucht.

Fasciola hepatica [2] = assay: Chemotherapeutic test against adult liver flukes in artificially infected rats (reduction of egg count per gram faeces), oral application; format: in vivo; conditions: Ratte
Excerpt: as §1, §2, §3

in vivo = conditions: sheep, quotient of Dosis tolerata maxima and applied dose, read-out: Sicherheits-faktor
Excerpt: Eine einmalige Verabreichung der erfindungsgemäßen Wirkstoffe in den angegebenen Dosierungen führt zu einem völligen Aufhören der Eiausscheidung und einer nahezu 100 %igen Befreiung der Tiere von Fasciola hepatica. Alle Dosierungen wurden von den Tieren ohne Nebenerscheinungen vertragen. Dieses wird durch den Sicherheitsfaktor unterstrichen, der wesentlich günstiger ist als bei den zum Vergleich herangezogenen Wirkstoffen
Der Sicherheitsfaktor gibt den Quotienten aus Dosis tolerate maxima und angewandter Dosis an. Die Ergebnisse dieser Versuche sind in der nachstehenden Tabelle zusammengestellt.

Fasciola hepatica [3] = assay: Chemotherapeutic test against adult liver flukes in artificially infected rabbits (reduction of egg count per gram faeces), oral application; format: in vivo; conditions: Kaninchen
Excerpt: as §1, with “gesichert.” for “gesichert. Der qualitativ-quantitative Nachweis von Eiern erfolgte nach der Telemann-Anreicherung (Deutsche Medizinische Wochenschrift "34: 1510, 1908).”
as §2, §3

[4] = 75 mg/kg peroral, adult liver flukes

## O=[N+]([O-])c1cc(Cl)cc(-c2cc(Cl)cc([N+](=O)[O-])c2O)c1O [Niclofolan, 5,5'-Dichlor-2,2`-dihydroxy-3,3'-dinitro-phenyl]
Fasciola hepatica [1]; Schaf, 1,5 mg/kg peroral
  Wirkung %: <50%
Fasciola hepatica [1]; Schaf, 3,0 mg/kg peroral
  Wirkung %: >90%
Fasciola hepatica [2]; 4 mg/kg peroral
  Wirkung %: 80%
Fasciola hepatica [2]; 8 mg/kg peroral
  Wirkung %: 90%
In vivo; applied dose 3,0 mg/kg (Schaf)
  selectivity ratio: 4.4
Fasciola hepatica [3]; 4 mg/kg peroral, death printed instead of an efficacy value
  Wirkung %: Exitus

## CSc1nc2cc(OS(=O)(=O)c3cccc(C(F)(F)F)c3)ccc2[nH]1 [Beispiel 1, 5(6)-(3-Trifluormethyl-phenylsulfonyloxy)-2-methylmercapto-benzimidazol]
Fasciola hepatica [1]; Schaf, 7,5 mg/kg peroral
  Wirkung %: >95%
Fasciola hepatica [1]; Schaf, 10,0 mg/kg peroral
  Wirkung %: 100%
Fasciola hepatica [2]; 50 mg/kg peroral
  Wirkung %: 80%
Fasciola hepatica [2]; 75 mg/kg peroral
  Wirkung %: 100%
Fasciola hepatica [3]; [4]
  Wirkung %: 100%
Fasciola hepatica [3]; <50 mg/kg peroral, adult liver flukes
  Wirkung %: 100%

## CC(=O)Oc1c(I)cc(I)cc1C(=O)Nc1ccc(Cl)cc1 [Clioxanide, 2-Acetoxy-4-chlor-3,5-dijod-benzanilid]
Fasciola hepatica [1]; Schaf, 3,75 mg/kg peroral
  Wirkung %: ca.50%
Fasciola hepatica [1]; Schaf, 7,5 mg/kg peroral
  Wirkung %: >90%
Fasciola hepatica [2]; 135 mg/kg peroral
  Wirkung %: 0%
Fasciola hepatica [2]; 200 mg/kg peroral
  Wirkung %: 0%
In vivo; applied dose 3,75 mg/kg (Schaf)
  selectivity ratio: 30
In vivo; applied dose 7,5 mg/kg (Schaf)
  selectivity ratio: 15
Fasciola hepatica [3]; 50 mg/kg peroral, adult liver flukes
  Wirkung %: 0%
Fasciola hepatica [3]; [4]
  Wirkung %: 0%
